logP data for four compounds are collected here from ChEMBL document CHEMBL5252553, “Synthesis and biological activities of drugs for the treatment of osteoporosis” (Eur J Med Chem, 2020).

SMILES strings stand for the structures.

This series is described as follows: n-Octanol/water partition coefficient, log P of the compound. Format: physicochemical.
As for `CCCCCCCCCCCCCC(=O)NCCCC(O)(P(=O)(O)O)P(=O)(O)O`, the logP was determined as 0.045. The result for `CCCCCCCCCCCC(=O)NCCCC(O)(P(=O)(O)O)P(=O)(O)O` reads 0.027; that for `CCCCCCCCCCCCCCCC(=O)NCCCC(O)(P(=O)(O)O)P(=O)(O)O`, 0.053. Compound `CCCCCCCCCCCCCCCCCC(=O)NCCCC(O)(P(=O)(O)O)P(=O)(O)O` gave a log partition coefficient (logP) of 0.063.
